Test results from publication PMC3579927, “Identification of a Small Molecule That Selectively Inhibits Mouse PC2 over Mouse PC1/3: A Computational and Experimental Study” (PLoS ONE, 2013).
Values belong to the compound of their own block, whether it stands above or below them.

Tests used:
Format in all cases: biochemical
[1] = molecular target: T1, prohormone convertase 2 (PC2) (Mus musculus, UniProt P21661); test: fluorogenic enzyme assay, stimulation of activity at […]; settings: read-out: % inhibition at 50 μM (negative = stimulation)
T1 construct: gene Pcsk2; Recombinant PC2
T1 sequence (P21661 109-637): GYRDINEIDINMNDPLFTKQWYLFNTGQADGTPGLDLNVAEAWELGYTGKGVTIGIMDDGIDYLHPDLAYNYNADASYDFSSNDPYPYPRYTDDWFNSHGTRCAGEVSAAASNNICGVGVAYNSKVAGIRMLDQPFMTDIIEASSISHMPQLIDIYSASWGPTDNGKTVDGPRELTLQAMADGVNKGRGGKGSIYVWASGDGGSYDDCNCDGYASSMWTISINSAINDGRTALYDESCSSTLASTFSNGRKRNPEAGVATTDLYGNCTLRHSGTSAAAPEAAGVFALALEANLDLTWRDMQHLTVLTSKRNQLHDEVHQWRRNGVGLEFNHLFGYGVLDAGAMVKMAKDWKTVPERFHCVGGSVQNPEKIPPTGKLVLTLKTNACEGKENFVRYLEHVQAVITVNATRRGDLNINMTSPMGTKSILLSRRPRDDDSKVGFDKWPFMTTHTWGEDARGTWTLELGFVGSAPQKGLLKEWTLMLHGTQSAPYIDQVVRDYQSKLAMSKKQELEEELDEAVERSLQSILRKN

[2] = molecular target: T1, prohormone convertase 2 (PC2); test: fluorogenic enzyme assay with pERTKR-amc, IC50 and inhibition kinetics
[3] = molecular target: T2, prohormone convertase 1/3 (PC1/3) (Mus musculus, UniProt P63239); test: enzyme assay, stimulation of activity at […]
T2 construct: gene Pcsk1
T2 sequence (P63239 111-753): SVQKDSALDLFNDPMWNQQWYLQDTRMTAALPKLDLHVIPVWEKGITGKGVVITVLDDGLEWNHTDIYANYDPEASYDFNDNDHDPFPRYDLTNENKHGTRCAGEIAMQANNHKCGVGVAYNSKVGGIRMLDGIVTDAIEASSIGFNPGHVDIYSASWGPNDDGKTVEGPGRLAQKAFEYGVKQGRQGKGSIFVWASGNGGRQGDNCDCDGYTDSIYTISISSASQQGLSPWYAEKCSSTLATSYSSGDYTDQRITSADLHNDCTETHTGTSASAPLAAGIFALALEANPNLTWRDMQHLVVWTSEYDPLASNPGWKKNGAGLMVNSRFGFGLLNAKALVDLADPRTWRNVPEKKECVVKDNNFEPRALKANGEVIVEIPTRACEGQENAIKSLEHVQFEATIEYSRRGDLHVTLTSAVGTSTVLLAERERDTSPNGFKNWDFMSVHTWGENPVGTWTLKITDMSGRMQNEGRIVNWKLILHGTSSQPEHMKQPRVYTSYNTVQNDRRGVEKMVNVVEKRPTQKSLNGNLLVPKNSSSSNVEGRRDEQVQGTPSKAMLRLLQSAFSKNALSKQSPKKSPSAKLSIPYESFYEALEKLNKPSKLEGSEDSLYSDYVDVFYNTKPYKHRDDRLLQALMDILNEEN

[4] = molecular target: T1, prohormone convertase 2 (PC2); test: fluorogenic enzyme assay with pERTKR-amc, […] inhibition at […] and […] at […]

inhibition at 50 µM [1]: -60%
SMILES: NCCCN=c1ccc2c3c1c(O)c1c(O)ccc(=O)c1c3[nH]n2CCNCCO [JFD02062]

Ki [2]: 690 ± 80 nM
SMILES: OC[C@@H](O)[C@H](O)[C@H](O)[C@@H](O)[C@@H]1NCCS1 [RJC00847]

inhibition at 50 µM [3]: -41%
inhibition at 50 µM [4]: 71%
SMILES: CCOC(=O)C(=CN/N=c1/cc[nH]c2cc(Cl)ccc12)C(=O)OCC [BTB03195]
